Measurements from PubChem BioAssay (NCI).
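Dose response: 5 concentrations. Exposure: 48 h. Format: 96-well plates. Endpoint: linear interpolation; highest concentration if not reached. Here, GI50 denotes the concentration required for 50% inhibition of growth. TGI marks complete inhibition of growth.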

Assays:
Experiment in all cases: inhibition of tumour cell growth, NCI panel, 48 h
[1] = tested on: KM12 colon
[2] = tested on: UACC-62 melanoma
[3] = tested on: NCI-H226 lung
[4] = tested on: OVCAR-4 ovarian
[5] = tested on: UO-31 renal
[6] = tested on: RXF 393 renal
[7] = tested on: MOLT-4 leukemia
[8] = tested on: MDA-MB-435
[9] = tested on: DU-145 prostate
[10] = tested on: SW-620 colon
[11] = tested on: HL-60(TB) leukemia
[12] = tested on: HCT-116 colon
[13] = tested on: CCRF-CEM leukemia
[14] = tested on: CAKI-1 renal
[15] = tested on: M14 melanoma
[16] = tested on: MDA-MB-231 breast
[17] = tested on: U251 CNS
[18] = tested on: HS 578T breast
[19] = tested on: UACC-257 melanoma
[20] = tested on: 786-0 renal
[21] = tested on: SK-MEL-28 melanoma
[22] = tested on: T-47D breast
[23] = tested on: NCI-H460 lung
[24] = tested on: SNB-19 CNS
[25] = tested on: OVCAR-5 ovarian
[26] = tested on: ACHN renal
[27] = tested on: SK-OV-3 ovarian
[28] = tested on: HT29 colon
[29] = tested on: NCI-H23 lung
[30] = tested on: NCI/ADR-RES ovarian
[31] = tested on: SF-539 CNS
[32] = tested on: OVCAR-3 ovarian
[33] = tested on: HCC-2998 colon
[34] = tested on: OVCAR-8 ovarian
[35] = tested on: RPMI-8226 leukemia
[36] = tested on: SF-268 CNS
[37] = tested on: MCF7 breast
[38] = tested on: MALME-3M melanoma
[39] = tested on: PC-3 prostate
[40] = tested on: HOP-62 NSCLC
[41] = tested on: EKVX NSCLC
[42] = tested on: COLO 205 colon
[43] = tested on: TK-10 renal
[44] = tested on: SNB-75 CNS
[45] = tested on: HOP-92 NSCLC
[46] = tested on: A549 NSCLC
[47] = tested on: SF-295 CNS
[48] = tested on: IGROV1 ovarian
[49] = tested on: SN12C renal
[50] = tested on: K-562 leukemia
[51] = tested on: HCT-15 colon
[52] = tested on: SK-MEL-5 melanoma
[53] = tested on: SR leukemia
[54] = tested on: A498 renal
[55] = tested on: BT-549 breast
[56] = tested on: LOX IMVI melanoma
[57] = tested on: NCI-H522 lung
[58] = tested on: SK-MEL-2 melanoma

With `O=C1CCc2c(Oc3ccc4c(c3)[C@H]3[C@@H](O4)[C@@H]3c3nc4ccc(C(F)(F)F)cc4[nH]3)ccnc2N1` the GI50 [1] was 690 nM, the TGI [1] was over 100 µM and the GI50 [2] was 21.5 nM. The TGI [2] was 1410 nM, the GI50 [3] was 1100 nM and the TGI [3] was over 100 µM. The GI50 [4] was 2020 nM, the TGI [4] was over 100 µM and the GI50 [5] was 693 nM. For the same compound, the TGI [5] was over 25.3 µM, the GI50 [6] was 4.03 µM and the TGI [6] was over 100 µM. It also gave a GI50 [7] of 1660 nM, a TGI [7] of over 100 µM and a GI50 [8] of 68.2 nM. The TGI [8] was over 100 µM, the GI50 [9] was 4.12 µM and the TGI [9] was over 100 µM. It also gave a GI50 [10] of 2430 nM, a TGI [10] of over 100 µM and a GI50 [11] of 237 nM. For the same compound, the TGI [11] was 3.14 µM, the GI50 [12] was 406 nM and the TGI [12] was over 100 µM. For the same compound, the GI50 [13] was 3.54 µM, the TGI [13] was over 100 µM and the GI50 [14] was 1470 nM. The TGI [14] was over 100 µM, the GI50 [15] was 26 nM and the TGI [15] was 2710 nM. For the same compound, the GI50 [16] was 610 nM, the TGI [16] was 8.28 µM and the GI50 [17] was 3.92 µM. It also gave a TGI [17] of over 100 µM, a GI50 [18] of 5.41 µM and a TGI [18] of over 100 µM. The GI50 [19] was 32.3 nM, the GI50 [20] was 6.28 µM and the TGI [20] was over 100 µM. It also gave a GI50 [21] of 32.6 nM, a TGI [21] of 3.8 µM and a GI50 [22] of 1370 nM. For the same compound, the TGI [22] was over 27.1 µM, the GI50 [23] was 2410 nM and the TGI [23] was over 100 µM. The GI50 [24] was 4.52 µM, the TGI [24] was over 100 µM and the GI50 [25] was 1070 nM. The TGI [25] was over 100 µM, the GI50 [26] was 711 nM and the TGI [26] was over 100 µM. For the same compound, the GI50 [27] was 3.54 µM, the TGI [27] was over 100 µM and the GI50 [28] was 30.2 nM. For the same compound, the TGI [28] was over 37.6 µM, the GI50 [29] was 1420 nM and the TGI [29] was over 100 µM. It also gave a GI50 [30] of 2830 nM, a TGI [30] of over 100 µM and a GI50 [31] of 4.66 µM. It also gave a TGI [31] of over 100 µM, a GI50 [32] of 4.18 µM and a TGI [32] of over 100 µM. The GI50 [33] was 3.08 µM, the TGI [33] was over 100 µM and the GI50 [34] was 3.12 µM. It also gave a TGI [34] of over 100 µM, a GI50 [35] of 2560 nM and a TGI [35] of over 100 µM. For the same compound, the GI50 [36] was 2730 nM, the TGI [36] was over 100 µM and the GI50 [37] was 2250 nM. For the same compound, the TGI [37] was over 100 µM, the GI50 [38] was under 13.7 nM and the TGI [38] was 61.3 nM. It also gave a GI50 [39] of 3.97 µM, a TGI [39] of over 100 µM and a GI50 [40] of 2450 nM. For the same compound, the TGI [40] was over 100 µM, the GI50 [41] was 2990 nM and the TGI [41] was over 100 µM. The GI50 [42] was 35.9 nM, the TGI [42] was 8.39 µM and the GI50 [43] was 1610 nM. The TGI [43] was over 30.3 µM, the GI50 [44] was 4.39 µM and the TGI [44] was over 100 µM. For the same compound, the GI50 [45] was 1180 nM, the TGI [45] was 5.68 µM and the GI50 [46] was 2520 nM. The TGI [46] was over 100 µM, the GI50 [47] was 3.63 µM and the TGI [47] was over 100 µM. The GI50 [48] was 1190 nM, the TGI [48] was over 100 µM and the GI50 [49] was 2210 nM. The TGI [49] was over 100 µM, the GI50 [50] was 38.1 nM and the GI50 [51] was 2400 nM. It also gave a TGI [51] of over 100 µM, a GI50 [52] of 435 nM and a TGI [52] of 2910 nM. For the same compound, the GI50 [53] was 2560 nM, the TGI [53] was over 25.2 µM and the GI50 [54] was 1120 nM. It also gave a TGI [54] of 4.24 µM, a GI50 [55] of 3.22 µM and a TGI [55] of over 100 µM. The GI50 [56] was 102 nM, the TGI [56] was 4.65 µM and the GI50 [57] was 903 nM. It also gave a TGI [57] of over 28.1 µM, a GI50 [58] of 242 nM and a TGI [58] of 1670 nM.
